According to US8399676B2, “Piperidine derivatives” (Hoffman-La Roche Inc., priority 2009, dated 2013):
Counter-ions that a name gives are not always drawn.

molecular target: T1, human HSL (Homo sapiens, UniProt Q05469); experiment: Human Hormone-Sensitive Lipase (HSL) enzyme inhibition assay (colorimetric, DMPT substrate); assay type: biochemical; settings: read-out: HSL hum IC50
T1 construct: generate a full length human HSL ORF with a 3′-His6 tag; His6 (C); made in house; host or cells: High 5 insect cells (baculovirus, pFast-BAC)
T1 sequence (Q05469 1-1076): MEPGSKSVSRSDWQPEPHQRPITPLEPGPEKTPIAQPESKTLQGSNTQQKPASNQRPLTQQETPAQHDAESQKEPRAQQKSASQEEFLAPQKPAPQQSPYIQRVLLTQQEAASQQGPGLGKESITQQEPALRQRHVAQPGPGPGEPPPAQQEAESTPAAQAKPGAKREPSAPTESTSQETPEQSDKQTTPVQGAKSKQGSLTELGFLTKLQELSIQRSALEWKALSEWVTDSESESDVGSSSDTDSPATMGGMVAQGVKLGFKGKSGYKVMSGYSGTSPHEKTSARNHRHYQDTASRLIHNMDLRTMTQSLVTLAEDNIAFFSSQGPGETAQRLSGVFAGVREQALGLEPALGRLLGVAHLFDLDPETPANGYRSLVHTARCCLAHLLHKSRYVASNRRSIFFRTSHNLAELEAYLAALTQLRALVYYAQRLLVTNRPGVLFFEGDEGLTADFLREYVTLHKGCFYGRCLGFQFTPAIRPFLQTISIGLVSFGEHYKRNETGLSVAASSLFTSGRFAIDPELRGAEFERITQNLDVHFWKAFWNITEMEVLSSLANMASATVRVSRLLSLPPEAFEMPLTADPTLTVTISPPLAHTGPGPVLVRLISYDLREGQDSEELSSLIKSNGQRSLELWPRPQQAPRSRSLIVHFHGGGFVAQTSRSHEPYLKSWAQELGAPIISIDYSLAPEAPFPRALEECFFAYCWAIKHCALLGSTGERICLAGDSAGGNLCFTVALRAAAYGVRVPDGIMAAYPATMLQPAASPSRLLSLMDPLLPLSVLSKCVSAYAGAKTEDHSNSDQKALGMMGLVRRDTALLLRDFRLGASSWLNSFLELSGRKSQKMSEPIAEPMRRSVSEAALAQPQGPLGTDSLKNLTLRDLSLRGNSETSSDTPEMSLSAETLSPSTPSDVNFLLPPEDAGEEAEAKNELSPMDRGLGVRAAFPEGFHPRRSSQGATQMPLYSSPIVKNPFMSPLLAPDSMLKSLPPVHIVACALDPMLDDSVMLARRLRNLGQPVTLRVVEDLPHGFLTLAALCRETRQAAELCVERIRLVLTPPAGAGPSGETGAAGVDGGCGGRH
Method in brief: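 Full-length human HSL carrying a C-terminal His6 tag was expressed in High 5 insect cells via baculovirus and purified on Ni-NTA. Compounds from 3-fold DMSO series were mixed with 1.5 mM DMPT substrate suspension in 100 mM MOPS pH 7.2 with 0.2 mg/ml fatty acid-free BSA, then enzyme (15 ug/ml) was added for 20 minutes at 37 °C. Released thiol was detected with DTNB plus SDS/Triton X-100 (15 minutes, room temperature) at 405 nm.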

Row | SMILES | IC50
1 | O=C(c1ccccc1Cl)N1CCC(O)(C(=O)Nc2ccc(OC(F)(F)F)cc2)CC1 [Example 56, 1-(2-Chloro-benzoyl)-4-hydroxy-piperidine-4-carboxylic acid (4-trifluoromethoxy-phenyl)-amide] | 460 nM
2 | CC(C)(C)c1ccc(NC(=O)C2(O)CCN(C(=O)c3cc(F)ccc3F)CC2)cc1 [Example 43, 1-(2,5-Difluoro-benzoyl)-4-hydroxy-piperidine-4-carboxylic acid (4-tert-butyl-phenyl)-amide] | 640 nM
3 | O=C(Nc1ccc(OC(F)(F)F)cc1)C1(O)CCN(Cc2ccccc2F)CC1 [Example 58, 1-(2-Fluoro-benzyl)-4-hydroxy-piperidine-4-carboxylic acid (4-trifluoromethoxy-phenyl)-amide] | 190 nM
4 | Cc1ccc(S(=O)(=O)N2CCC(O)(C(=O)Nc3ccc(C(C)C)cc3)CC2)cc1 [Example 5, 4-Hydroxy-1-(toluene-4-sulfonyl)-piperidine-4-carboxylic acid (4-isopropyl-phenyl)-amide] | 210 nM
5 | COc1ccc(OC)c(NC(=O)N2CCC(O)(C(=O)Nc3ccc(C(C)(C)C)cc3)CC2)c1 [Example 49, 4-Hydroxy-piperidine-1,4-dicarboxylic acid 4-[(4-tert-butyl-phenyl)-amide] 1-[(2,5-dimethoxy-phenyl)-amide]] | 660 nM
6 | O=C(Nc1ccc(OC(F)(F)F)cc1)C1(O)CCN(S(=O)(=O)c2ccccc2Cl)CC1 [Example 10, 1-(2-Chloro-benzenesulfonyl)-4-hydroxy-piperidine-4-carboxylic acid (4-trifluoromethoxy-phenyl)-amide] | 120 nM
7 | O=C(Nc1ccc(OC(F)(F)F)cc1)C1(O)CCN(S(=O)(=O)c2ccccc2C(F)(F)F)CC1 [Example 64, 4-Hydroxy-1-(2-trifluoromethyl-benzenesulfonyl)-piperidine-4-carboxylic acid (4-trifluoromethoxy-phenyl)-amide] | 150 nM
8 | CC(C)(C)c1ccc(NC(=O)C2(O)CCN(Cc3ccc(C(F)(F)F)cc3)CC2)cc1 [Example 20, 4-Hydroxy-1-(4-trifluoromethyl-benzyl)-piperidine-4-carboxylic acid (4-tert-butyl-phenyl)-amide] | 320 nM

Further lines, results first:

Row | IC50 | SMILES
9 | 780 nM | CC(C)(C)c1ccc(NC(=O)N2CCC(N)(C(=O)Nc3ccc(F)cc3)CC2)cc1 [Example 87, 4-Amino-piperidine-1,4-dicarboxylic acid 1-[(4-tert-butyl-phenyl)-amide]-4-[(4-fluoro-phenyl)-amide]; hydrochloride]
10 | 60 nM | CN(C(=O)C1(O)CCN(S(=O)(=O)c2ccccc2Cl)CC1)c1ccc(OC(F)(F)F)cc1 [Example 72, 1-(2-Chloro-benzenesulfonyl)-4-hydroxy-piperidine-4-carboxylic acid methyl-(4-trifluoromethoxy-phenyl)-amide]
11 | 360 nM | Cc1ccc(NC(=O)C2(N)CCN(C(=O)Nc3ccc(OC(F)(F)F)cc3)CC2)cc1 [Example 84, 4-Amino-piperidine-1,4-dicarboxylic acid 4-p-tolylamide 1-[(4-trifluoromethoxy-phenyl)-amide]; hydrochloride]
12 | 50 nM | Cc1ccc(S(=O)(=O)N2CCC(N)(C(=O)Nc3ccc(OC(F)(F)F)cc3)CC2)cc1 [Example 80, 4-Amino-1-(toluene-4-sulfonyl)-piperidine-4-carboxylic acid (4-trifluoromethoxy-phenyl)-amide; hydrochloride]
13 | 70 nM | CCCc1ccc(NC(=O)C2(N)CCN(S(=O)(=O)c3ccccc3Cl)CC2)cc1 [Example 98, 4-Amino-1-(2-chloro-benzenesulfonyl)-piperidine-4-carboxylic acid (4-propyl-phenyl)-amide]
14 | 120 nM | CC(C)c1ccc(NC(=O)C2(N)CCN(C(=O)Nc3ccc(OC(F)(F)F)cc3)CC2)cc1 [Example 85, 4-Amino-piperidine-1,4-dicarboxylic acid 4-[(4-isopropyl-phenyl)-amide]1-[(4-trifluoromethoxy-phenyl)-amide]; hydrochloride]
15 | 190 nM | CN(C(=O)C1(O)CCN(Cc2ccccc2F)CC1)c1ccc(OC(F)(F)F)cc1 [Example 67, 1-(2-Fluoro-benzyl)-4-hydroxy-piperidine-4-carboxylic acid methyl-(4-trifluoromethoxy-phenyl)-amide]
16 | 210 nM | CC(C)c1ccc(NC(=O)C2(N)CCN(Cc3ccccc3C(F)(F)F)CC2)cc1 [Example 114, 4-Amino-1-(2-trifluoromethyl-benzyl)-piperidine-4-carboxylic acid (4-isopropyl-phenyl)-amide; hydrochloride]
17 | 60 nM | CCCCc1ccc(NC(=O)C2(N)CCN(S(=O)(=O)c3ccccc3Cl)CC2)cc1 [Example 104, 4-Amino-1-(2-chloro-benzenesulfonyl)-piperidine-4-carboxylic acid (4-butyl-phenyl)-amide]
18 | 140 nM | C=Cc1ccc(NC(=O)C2(N)CCN(S(=O)(=O)c3ccccc3Cl)CC2)cc1 [Example 100, 4-Amino-1-(2-chloro-benzenesulfonyl)-piperidine-4-carboxylic acid (4-vinyl-phenyl)-amide]
